Here are results for 26 compounds from patent US12441736B2, “KIF18A inhibitors” (AMGEN INC., priority 2018, dated 2025).

pIC50: −log10 of the molar value.

T1 sequence (Q8NI77 1-467): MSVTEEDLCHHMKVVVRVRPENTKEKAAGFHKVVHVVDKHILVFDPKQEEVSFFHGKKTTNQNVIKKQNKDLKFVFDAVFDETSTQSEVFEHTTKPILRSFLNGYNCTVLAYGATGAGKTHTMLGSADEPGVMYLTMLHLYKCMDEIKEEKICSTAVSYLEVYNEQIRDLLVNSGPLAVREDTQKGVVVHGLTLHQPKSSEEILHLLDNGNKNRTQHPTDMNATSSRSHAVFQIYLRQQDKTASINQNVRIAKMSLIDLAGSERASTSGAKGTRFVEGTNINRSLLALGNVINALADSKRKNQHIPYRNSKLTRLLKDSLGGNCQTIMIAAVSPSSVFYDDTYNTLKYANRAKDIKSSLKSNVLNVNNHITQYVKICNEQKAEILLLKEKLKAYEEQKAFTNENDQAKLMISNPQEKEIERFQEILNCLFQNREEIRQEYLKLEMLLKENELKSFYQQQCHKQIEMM
T1 sequence (P02550 whole entry partner): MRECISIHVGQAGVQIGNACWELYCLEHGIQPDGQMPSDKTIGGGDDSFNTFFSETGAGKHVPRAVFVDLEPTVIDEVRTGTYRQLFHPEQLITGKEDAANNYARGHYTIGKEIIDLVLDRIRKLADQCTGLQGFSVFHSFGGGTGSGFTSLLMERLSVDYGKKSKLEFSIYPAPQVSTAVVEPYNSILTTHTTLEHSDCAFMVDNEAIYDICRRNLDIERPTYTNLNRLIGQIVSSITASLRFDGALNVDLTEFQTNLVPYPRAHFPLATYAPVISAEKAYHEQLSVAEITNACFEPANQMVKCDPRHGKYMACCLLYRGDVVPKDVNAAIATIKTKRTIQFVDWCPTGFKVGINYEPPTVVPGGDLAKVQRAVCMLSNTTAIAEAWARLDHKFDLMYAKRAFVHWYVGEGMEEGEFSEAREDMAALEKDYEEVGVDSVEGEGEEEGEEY
T1 sequence (P02554 whole entry partner): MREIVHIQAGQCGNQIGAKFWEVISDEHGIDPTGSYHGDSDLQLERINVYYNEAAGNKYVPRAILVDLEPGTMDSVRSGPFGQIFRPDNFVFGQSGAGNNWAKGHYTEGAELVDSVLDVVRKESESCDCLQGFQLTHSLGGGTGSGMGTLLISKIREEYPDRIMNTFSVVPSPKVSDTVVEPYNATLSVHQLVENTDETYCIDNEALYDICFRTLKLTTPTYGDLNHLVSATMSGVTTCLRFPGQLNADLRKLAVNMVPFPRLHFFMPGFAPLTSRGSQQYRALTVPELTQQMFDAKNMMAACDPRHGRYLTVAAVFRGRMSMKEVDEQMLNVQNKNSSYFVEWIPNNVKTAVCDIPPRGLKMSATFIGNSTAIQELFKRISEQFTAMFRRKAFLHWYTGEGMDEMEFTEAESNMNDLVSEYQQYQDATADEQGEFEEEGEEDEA

The assay addresses T1, Recombinant human KIF18A (1-467 His-tagged) protein (Homo sapiens, UniProt Q8NI77).
T1 construct: Recombinant human KIF18A (1-467 His-tagged) protein; His; made in house
Put plainly: KIF18A Enzyme Assay: microtubule-stimulated ATPase activity (ADP-Glo). Format: biochemical. The conditions noted are these: 30 nM KIF18A, 30 μg/mL pig microtubules, 75 μM ATP, ADP-Glo luminescence. Summed up:
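His-tagged human KIF18A (1-467, baculovirus), 30 nM, pre-incubated 15 min with compound in Tris pH 7.5 containing 30 μg/mL taxol-stabilised pig microtubules. ATP was then added at Km (75 μM) for 15 min at room temperature. ADP was measured by ADP-Glo luminescence, and IC50 was fitted by 4-parameter logistic over 22 points.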
Take `CC1(O)CN(c2ccc(C(=O)Nc3cccc(S(=O)(=O)NC(C)(C)C)n3)c(N3CCC4(CC3)CC4)n2)C1` [Example 159, 2-(6-azaspiro[2.5]octan-6-yl)-6-(3-hydroxy-3-methyl-1-azetidinyl)-N-(6-((2-methyl-2-propanyl)sulfamoyl)-2-pyridinyl)-3-pyridinecarboxamide]: the negative-log IC50 (pIC50) was 6.77.

For `CC(C)(CO)Nc1ccc(C(=O)Nc2cc(C3CC3)cc(N3CCOCC3)n2)c(N2CCC3(CC2)CC3)n1` [Example 160, 2-(6-azaspiro[2.5]octan-6-yl)-N-(4-cyclopropyl-6-(4-morpholinyl)-2-pyridinyl)-6-((1-hydroxy-2-methyl-2-propanyl)amino)-3-pyridinecarboxamide], the pIC50 is 6.56.

With `CC1(C)COC(=O)N1c1cccc(NC(=O)c2ccc(N3C(=O)OCC3(C)C)nc2N2CCC3(CC2)CC3)n1` [Example 161, 2-(6-azaspiro[2.5]octan-6-yl)-6-(4,4-dimethyl-2-oxo-1,3-oxazolidin-3-yl)-N-(6-(4,4-dimethyl-2-oxo-1,3-oxazolidin-3-yl)-2-pyridinyl)-3-pyridinecarboxamide], the pIC50 was 5.66.

Consider `CC(C)(CO)Nc1cccc(NC(=O)c2ccc(NC(C)(C)CO)nc2N2CCC3(CC2)CC3)n1` [Example 162, 2-(6-azaspiro[2.5]octan-6-yl)-6-((1-hydroxy-2-methyl-2-propanyl)amino)-N-(6-((1-hydroxy-2-methyl-2-propanyl)amino)-2-pyridinyl)-3-pyridinecarboxamide], for which the pIC50 is 7.15.

Take `CC(C)(CO)Nc1ccc(C(=O)Nc2cccc(N3CC4(COC4)C3)n2)c(N2CCC3(CC2)CC3)n1` [Example 163, 2-(6-azaspiro[2.5]octan-6-yl)-6-((1-hydroxy-2-methyl-2-propanyl)amino)-N-(6-(2-oxa-6-azaspiro[3.3]heptan-6-yl)-2-pyridinyl)-3-pyridinecarboxamide]: the pIC50 was 6.80.

With `CC(CO)(CO)Nc1ccc(C(=O)Nc2cccc(Br)n2)c(N2CCC3(CC2)CC3)n1` [Example 164, 2-(6-azaspiro[2.5]octan-6-yl)-N-(6-bromo-2-pyridinyl)-6-((1,3-dihydroxy-2-methyl-2-propanyl)amino)-3-pyridinecarboxamide], the pIC50 is 5.56.

Consider `C[C@@H]1CN(c2cccc(NC(=O)c3ccc(N4C(=O)OCC4(C)C)nc3N3CCC4(CC3)CC4)n2)CCO1` [Example 165, 2-(6-azaspiro[2.5]octan-6-yl)-6-(4,4-dimethyl-2-oxo-1,3-oxazolidin-3-yl)-N-(6-((2R)-2-methyl-4-morpholinyl)-2-pyridinyl)-3-pyridinecarboxamide], for which the pIC50 was 6.18.

As to `C[C@@H]1CN(c2cccc(NC(=O)c3ccc(C(C)(O)CO)nc3N3CCC4(CC3)CC4)n2)CCO1` (stereo partly drawn) [Example 166, 6-(1,2-dihydroxypropan-2-yl)-N-(6-((R)-2-methylmorpholino)pyridin-2-yl)-2-(6-azaspiro[2.5]octan-6-yl)nicotinamide], the pIC50 was 7.20.

For the compound `C[C@@H]1CN(c2cccc(NC(=O)c3ccc([C@](C)(O)CO)nc3N3CCC4(CC3)CC4)n2)CCO1` [Example 167, 2-(6-azaspiro[2.5]octan-6-yl)-6-((2S)-1,2-dihydroxy-2-propanyl)-N-(6-((2R)-2-methyl-4-morpholinyl)-2-pyridinyl)-3-pyridinecarboxamide], the pIC50 was 7.09.

As to `C[C@@H]1CN(c2cccc(NC(=O)c3ccc([C@@](C)(O)CO)nc3N3CCC4(CC3)CC4)n2)CCO1` [Example 168, 2-(6-azaspiro[2.5]octan-6-yl)-6-((2R)-1,2-dihydroxy-2-propanyl)-N-(6-((2R)-2-methyl-4-morpholinyl)-2-pyridinyl)-3-pyridinecarboxamide], the pIC50 is 7.05.

In the case of `CC(C)(C)NS(=O)(=O)c1cccc(NC(=O)c2ccc(C(C)(O)CO)nc2N2CCC3(CC2)CC3)n1` (centres unmarked) [Example 169, N-(6-(N-(tert-butyl)sulfamoyl)pyridin-2-yl)-6-(1,2-dihydroxypropan-2-yl)-2-(6-azaspiro[2.5]octan-6-yl)nicotinamide], the pIC50 is 7.05.

`Cc1cc(NC(=O)c2ccc(NC(C)(C)CO)nc2N2CCC3(CC2)CC3)nc(NC(C)(C)CO)c1` [Example 170, 2-(6-azaspiro[2.5]octan-6-yl)-6-((1-hydroxy-2-methyl-2-propanyl)amino)-N-(6-((1-hydroxy-2-methyl-2-propanyl)amino)-4-methyl-2-pyridinyl)-3-pyridinecarboxamide]: the pIC50 was 6.80.

Consider `CC(C)(C)NS(=O)(=O)c1cccc(NC(=O)c2ccc(F)nc2N2CCC3(CC2)CC3)n1` [Example 173, 2-(6-azaspiro[2.5]octan-6-yl)-6-fluoro-N-(6-((2-methyl-2-propanyl)sulfamoyl)-2-pyridinyl)-3-pyridinecarboxamide], for which the pIC50 was 6.19.

As to `CC(C)(C)NS(=O)(=O)c1cccc(NC(=O)c2ccc(NC(C)(CO)CO)nc2N2CCC3(CC2)CC3)n1` [Example 174, 2-(6-azaspiro[2.5]octan-6-yl)-6-((1,3-dihydroxy-2-methyl-2-propanyl)amino)-N-(6-((2-methyl-2-propanyl)sulfamoyl)-2-pyridinyl)-3-pyridinecarboxamide], the pIC50 is 7.21.

As for `C[C@@H]1COCCN1c1cccc(NC(=O)c2ccc(NC(C)(C)CO)nc2N2CCC3(CC2)CC3)n1` [Example 179, 2-(6-azaspiro[2.5]octan-6-yl)-6-((1-hydroxy-2-methyl-2-propanyl)amino)-N-(6-((3R)-3-methyl-4-morpholinyl)-2-pyridinyl)-3-pyridinecarboxamide], the pIC50 is 7.01.

Take `CC1(C)OCC(c2ccc(C(=O)Nc3cccc(N4CCOCC4)n3)c(N3CCC4(CC3)CC4)n2)(C(F)(F)F)O1` (centres unmarked) [Example 180, 6-(2,2-dimethyl-4-(trifluoromethyl)-1,3-dioxolan-4-yl)-N-(6-morpholinopyridin-2-yl)-2-(6-azaspiro[2.5]octan-6-yl)nicotinamide]: the pIC50 is 6.12.

As for `O=C(Nc1cccc(N2CCOCC2)n1)c1ccc(C(O)(CO)C(F)(F)F)nc1N1CCC2(CC1)CC2` (centres unmarked) [Example 181, N-(6-morpholinopyridin-2-yl)-2-(6-azaspiro[2.5]octan-6-yl)-6-(1,1,1-trifluoro-2,3-dihydroxypropan-2-yl)nicotinamide], the pIC50 is 7.16.

As to `C[C@@H]1CN(c2cccc(NC(=O)c3ccc(C(O)(CO)C(F)(F)F)nc3N3CCC4(CC3)CC4)n2)CCO1` (stereo partly drawn) [Example 182, N-(6-((R)-2-methylmorpholino)pyridin-2-yl)-2-(6-azaspiro[2.5]octan-6-yl)-6-(1,1,1-trifluoro-2,3-dihydroxypropan-2-yl)nicotinamide], the negative logarithm of the IC50 (pIC50) is 7.10.

In the case of `C[C@H]1COCCN1c1cccc(NC(=O)c2ccc(NC(C)(C)CO)nc2N2CCC3(CC2)CC3)n1` [Example 183, 2-(6-azaspiro[2.5]octan-6-yl)-6-((1-hydroxy-2-methyl-2-propanyl)amino)-N-(6-((3S)-3-methyl-4-morpholinyl)-2-pyridinyl)-3-pyridinecarboxamide], the pIC50 is 6.69.

Consider `Cc1cc(NC(=O)c2ccc(NC(C)(CO)CO)nc2N2CCC3(CC2)CC3)nc(N2CCOCC2)c1` [Example 184, 2-(6-azaspiro[2.5]octan-6-yl)-6-((1,3-dihydroxy-2-methyl-2-propanyl)amino)-N-(4-methyl-6-(4-morpholinyl)-2-pyridinyl)-3-pyridinecarboxamide], for which the negative-log IC50 (pIC50) is 7.21.

Turning to `CC(C)(CO)Nc1ccc(C(=O)Nc2cccc(N3CCN(C(=O)OC(C)(C)C)CC3)n2)c(N2CCC3(CC2)CC3)n1` [Example 185, 2-methyl-2-propanyl 4-(6-(((2-(6-azaspiro[2.5]octan-6-yl)-6-((1-hydroxy-2-methyl-2-propanyl)amino)-3-pyridinyl)carbonyl)amino)-2-pyridinyl)-1-piperazinecarboxylate], the pIC50 is 6.23.

Take `CC(C)(CO)Nc1ccc(C(=O)Nc2cccc(N3CCOC(C(C)(C)O)C3)n2)c(N2CCC3(CC2)CC3)n1` (centres unmarked) [Example 186, 6-((1-hydroxy-2-methylpropan-2-yl)amino)-N-(6-(2-(2-hydroxypropan-2-yl)morpholino)pyridin-2-yl)-2-(6-azaspiro[2.5]octan-6-yl)nicotinamide]: the pIC50 was 6.44.

For `CC(C)N1CCN(c2cccc(NC(=O)c3ccc(NC(C)(C)CO)nc3N3CCC4(CC3)CC4)n2)CC1` [Example 188, 2-(6-azaspiro[2.5]octan-6-yl)-6-((1-hydroxy-2-methyl-2-propanyl)amino)-N-(6-(4-(2-propanyl)-1-piperazinyl)-2-pyridinyl)-3-pyridinecarboxamide], the negative-log IC50 (pIC50) is 5.65.

`CC(C)(CO)Nc1ccc(C(=O)Nc2cccc(N3CCO[C@H](CO)C3)n2)c(N2CCC3(CC2)CC3)n1` [Example 189, 2-(6-azaspiro[2.5]octan-6-yl)-N-(6-((2S)-2-(hydroxymethyl)-4-morpholinyl)-2-pyridinyl)-6-((1-hydroxy-2-methyl-2-propanyl)amino)-3-pyridinecarboxamide]: the pIC50 was 6.96.

With `CC(C)(CO)Nc1ccc(C(=O)Nc2cccc(N3CCN(C4CC4)CC3)n2)c(N2CCC3(CC2)CC3)n1` [Example 190, 2-(6-azaspiro[2.5]octan-6-yl)-N-(6-(4-cyclopropyl-1-piperazinyl)-2-pyridinyl)-6-((1-hydroxy-2-methyl-2-propanyl)amino)-3-pyridinecarboxamide], the pIC50 is 6.16.

As for `CC(C)(CO)Nc1ccc(C(=O)Nc2cccc(N3CCN(C4CCC4)CC3)n2)c(N2CCC3(CC2)CC3)n1` [Example 191, 2-(6-azaspiro[2.5]octan-6-yl)-N-(6-(4-cyclobutyl-1-piperazinyl)-2-pyridinyl)-6-((1-hydroxy-2-methyl-2-propanyl)amino)-3-pyridinecarboxamide], the negative-log IC50 (pIC50) is 5.91.

As usually defined, the pIC50 is −log10 of the IC50, conventionally taken in molar units.
